Tested on: S. mutans
Assay type: cell-based
Method: Chitosan is a known antimicrobial. The antimicrobial activities of chitosans were determined with XTT assay based on the measurement of bacterial metabolic activities. The bacteria include S. sanguis, S. fecalis, and S. mutans. […] The metabolic activity and viability of S. mutans was decreased with the increase of the molecular weight of chitosan from 1K to 10K, as shown in FIG. 3. […] The relative viability of S. mutans treated with chitosan 10K was only about 10% as compared to the control. […] The chitosan with molecular weight of 10K reached the greatest inhibition effect against S. mutans in our XTT assay.
The antimicrobial activity of chitosan 10K was tested on three different oral bacteria which are major bacteria responsible for the occurrence of dental caries. […] The antimicrobial effects are concentration dependent and increased with increased chitosan concentration.

## chitosan [chitosan 5K]
  relative viability of S. mutans as compared to the control: 55%

## chitosan [chitosan 10K]
  relative viability of S. mutans as compared to the control: about 10%

From patent publication US10470993B2, “Tooth remineralization compositions and methods” (priority 2013, dated 2019)
